Assay results as given in PubChem BioAssay (NCI).
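Briefly, cells in 96-well plates were exposed to five compound concentrations for 48 h, and endpoints were estimated by linear interpolation. GI50 marks 50% less growth. At the TGI there is no net growth.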

Columns and labels:
Experiment in all cases: NCI-60 cell line screen, 48 h
SW-620 colon = test system: SW-620 colon
OVCAR-3 ovarian = test system: OVCAR-3 ovarian
LOX IMVI melanoma = test system: LOX IMVI melanoma
OVCAR-4 ovarian = test system: OVCAR-4 ovarian
HCC-2998 colon = test system: HCC-2998 colon
HL-60(TB) leukemia = test system: HL-60(TB) leukemia
NCI/ADR-RES ovarian = test system: NCI/ADR-RES ovarian
T-47D breast = test system: T-47D breast
SF-268 CNS = test system: SF-268 CNS
MDA-N = test system: MDA-N

SMILES	TGI (SW-620 colon) [µM]	TGI (OVCAR-3 ovarian) [µM]	TGI (LOX IMVI melanoma) [µM]	TGI (OVCAR-4 ovarian) [µM]	TGI (HCC-2998 colon) [µM]	TGI (HL-60(TB) leukemia) [µM]	TGI (NCI/ADR-RES ovarian) [µM]	TGI (T-47D breast) [µM]	TGI (SF-268 CNS) [µM]	TGI (MDA-N) [µM]	GI50 (SW-620 colon) [µM]	GI50 (OVCAR-3 ovarian) [µM]	GI50 (LOX IMVI melanoma) [µM]	GI50 (OVCAR-4 ovarian) [µM]	GI50 (HCC-2998 colon) [µM]	GI50 (HL-60(TB) leukemia) [µM]	GI50 (NCI/ADR-RES ovarian) [µM]	GI50 (T-47D breast) [µM]	GI50 (SF-268 CNS) [µM]
CCOC(=O)C(C(=S)Nc1ccccc1)c1nn2c(=O)cc(C)nc2s1 (stereo not given)	> 100	63.2	30.4	> 100	60.6	43.8	67.2	85.2	> 100										
COc1ccc(/C=C2\N=C(c3ccccc3)N(N=C3NC(=O)CC(=O)N3)C2=O)cc1	> 100	> 100		> 100	> 100	> 100	> 100	> 100	> 100	> 100									
O=c1oc2cc(O)ccc2c(O)c1C(c1cccnc1)c1c(O)c2ccc(O)cc2oc1=O	> 100	> 100	> 100		> 100	> 100	> 100	> 100	> 100	> 100									
Cc1ccc(-n2[nH]nc(C#N)c2=O)cc1	> 100	> 100		> 100	> 100	> 100	> 100	> 100	> 100	> 100									
COCOc1c(C(O[Si](C)(C)C(C)(C)C)c2cnc(Sc3ccccc3)n2C)ccc(OC)c1OC (stereo not given)	3.8	3.22	3.23	16.2	3.7		2.75	> 100	3.34	3.34									
Nc1[nH]c(=S)nc2snnc12	> 100	> 100	> 100		> 100	> 100	> 100	> 100	> 100	> 100									
Cn1c2ccccc2c2c(=O)[nH]c(=O)[nH]c21	> 100	> 100	> 100		> 100	> 100	> 100	> 100	> 100	> 100									
COC(=O)c1ccc(C)cc1/C=C1\Cc2ccc(C)cc2C1=O	51.3	31.2	25.6	46.1	38.4	18.2	> 100	69.6	48.4										
CC(=O)OC(CCC1(C)OC1COc1ccc(CCNC(=O)c2ccccc2)cc1)C(C)(C)OC(C)=O (stereo not given)	> 100	54.5	> 100	> 100		> 100			> 100										
COc1ccc(/C=c2\sc3n(c2=O)C(N)=C(C#N)C(c2ccc(OC)cc2)C=3c2nc3ccccc3[nH]2)cc1 (stereo not given)	83.6	44.3	35.2	> 100	64.3	> 100			> 100										
CC(C)(C)c1cc(C2=NN(c3ccccc3)C(c3ccccc3)C2)cc(C(C)(C)C)c1O (stereo not given)	> 100	> 100	> 100	> 100		> 100	> 100	> 100	> 100	> 100									
Cc1cc(NC[C@H](O)[C@H](O)[C@H](O)CO)c(Sc2cc(=O)[nH]c(=O)[nH]2)cc1C	> 62.5	> 62.5	> 62.5	> 62.5	> 62.5		> 62.5	> 62.5	> 62.5	> 62.5									
N#C/C(=C\c1cc(Cl)cc(Cl)c1)c1ccccn1	> 100	> 100		> 100	> 100	> 100	> 100		> 100	40.2									
CSCCCNC(=O)c1csc(-c2csc(C(CNC(=O)OC(C)(C)C)CNC(=O)OC(C)(C)C)n2)n1	> 100	> 100	> 100	> 100			> 100	> 100	> 100	> 100									
CN1C(=O)[C@@H]2[C@@H]3c4ccccc4N(S(=O)(=O)C(F)(F)F)[C@@H]3c3[nH]c4ccccc4c3[C@@H]2C1=O	> 100	> 100	> 100	> 100	> 100		> 100		> 100	> 100									
CCOC(=O)C1OC(C2(C)OC3(OC4(C=CC3O)OC(C(C)C(=O)C(C)C(O)C(C)CC(C)c3c(Cl)cc(C)c(O)c3C(=O)O)C(C)CC4C)C(C)C2OC)CC1O (stereo not given)	10.5	3.9	14.2	4.53	0.264	4.66	20.4		6.85	4.76									
O=C1/C(=C/c2ccc(Cl)cc2)N=C(c2ccccc2)N1CCc1cccs1	> 100	> 100	> 100	> 100	> 100	90.2	> 100	> 100	> 100		30.6	16.7	8.52	7.72	31.8	21.4	23.7	18.2	31.7
CCCCCCCCCCCCCC[n+]1ccc2c(C)c3c(c(C)c2c1)c1cc(O)ccc1n3CC				1.07	1.81	1.95	32.3							0.272	0.435	0.378	5.13		
NC1CC2NC3CCCCC3NC2CC1N (stereo not given)	> 100	> 100	> 100		> 100	94.9	> 100		> 100	> 100									
O=S(=O)(O)ON=C1c2ccccc2-c2ccccc21	> 100	> 100	> 100	> 100	> 100	> 100	> 100	> 100	> 100										
CC(=O)O[C@@H]1C2=C(C)C=C(O2)[C@H]2O[C@]2(C)C[C@H]2C=C(C(=O)O2)[C@H](OC(C)=O)CC1[C@@]1(C)CO1 (stereo not given in full)	26.1		37.6	> 100	> 100		> 100	39.7	> 100	> 100									
Cc1cccnc1/N=C/c1c(O)n(C)c(=O)[nH]c1=O	> 100	> 100	> 100	> 100		> 100		> 100	> 100	> 100									
